# Assays:
# Pseudomonas aeruginosa [1] = test: antimicrobial activity against Pseudomonas aeruginosa
# Pseudomonas aeruginosa [2] = test: Antimicrobial activity against Pseudomonas aeruginosa relative to peptide Bac2A RLARIVVIRVAR sequence
pIC50 (Pseudomonas aeruginosa [1]),Ratio IC50 (Pseudomonas aeruginosa [2]),Compound
6.89,0.13,H-KRWWKWWRR-OH
6.51,0.31,H-RIKRWWWWR-OH
6.68,0.21,H-IRRRKWWWW-OH
6.64,0.23,H-IRRRWWWIV-OH
6.74,0.18,H-RKRLKWWIY-OH
5.6,2.5,H-WHGVRWWKW-OH
6.02,0.95,H-RHWKTWWKR-OH
4.6,25,H-RWILWWWRI-OH
6.66,0.22,H-KRWWWWWKR-OH
6.64,0.23,H-WRWWKWWRR-OH
6.4,0.4,H-KRRRIWWWK-OH
6.6,0.25,H-WKRWKWWKR-OH
6.55,0.28,H-KRKIWWWIR-OH
6.29,0.51,H-RIKVIWWWR-OH
6.41,0.39,H-RWRRKWWWW-OH
6.62,0.24,H-RWWRKWWIR-OH
6.37,0.43,N=C(N)NCCC[C@H](NC(=O)[C@H](CCCCN)NC(=O)[C@H](CCCNC(=N)N)NC(=O)[C@@H](N)CCCNC(=N)N)C(=O)N[C@@H](Cc1c[nH]c2ccccc12)C(=O)N[C@@H](Cc1c[nH]c2ccccc12)C(=O)N[C@@H](Cc1c[nH]c2ccccc12)C(=O)N[C@@H](Cc1c[nH]c2ccccc12)C(=O)N[C@@H](Cc1c[nH]c2ccccc12)C(=O)O
6.17,0.68,H-RRIWRWWWW-OH
6.7,0.2,H-KWWKIWWKR-OH
6.12,0.76,H-TRKVWWWRW-OH
6.06,0.88,H-LRFILWWKR-OH
6.51,0.31,H-RKWWRWWRW-OH
5.74,1.82,N=C(N)NCCC[C@H](NC(=O)[C@H](CCCNC(=N)N)NC(=O)[C@@H](N)CCCNC(=N)N)C(=O)N[C@@H](Cc1c[nH]c2ccccc12)C(=O)N[C@@H](Cc1c[nH]c2ccccc12)C(=O)N[C@@H](Cc1c[nH]c2ccccc12)C(=O)N[C@@H](Cc1c[nH]c2ccccc12)C(=O)N[C@@H](Cc1c[nH]c2ccccc12)C(=O)N[C@@H](Cc1c[nH]c2ccccc12)C(=O)O
6.52,0.3,H-KKRWLWWWR-OH

# — ChEMBL document CHEMBL3352520, “CoMFA and CoMSIA analysis of ACE-inhibitory, antimicrobial and bitter-tasting peptides” (Eur J Med Chem, 2014)
